Measured values: patent US20220259196A1, “2-AMINOPYRIMIDINE COMPOUND AND USES THEREOF” (Shenyang Pharmaceutical University, priority 2019, published 2022)
Values belong to the molecule of their own block, whether it stands above or below them.

Key:
[1] = biological target: JAK2 (Homo sapiens, UniProt O60674); assay: in vitro JAK2 kinase activity test, Mobility Shift Assay; assay type: biochemical; conditions: compound concentration 0.1 μM; read-out: Percentage of inhibition against JAK2 at 0.1 μM
Description: The in vitro JAK2 and FLT3 kinase activity test was performed on the compounds of the 2-aminopyrimidine backbone of the above formula I (concentration 0.1 μM) according to the present invention using Mobility Shift Assay. The control compounds Pacritinib and Fedratinib were prepared by our research group.
(§1) The kinase buffer was composed of 50 mM HEPEs (pH 7.5) and 0.0015% BRIJ-35. The stop buffer contained a mixture of 100 mM HEPES (pH 7.5), 0.015% BRIJ-35, 0.2% coating reagent #3 and 50 mM EDTA. The compound to be tested was diluted with 100% DMSO to 50 times the highest concentration required in the reaction. The dilution of compound to be tested (100 μL) was transferred to the wells of a 96-well plate. […] was added to two wells of the plate as a control group and the plate was marked as the source plate. 10 μL of compound was transferred from the source plate to a new 96-well plate to prepare an intermediate plate. In the intermediate plate, an additional 90 μL of kinase buffer was added to each well. The intermediate plate was shaken for 10 minutes, and then 5 μL of each well of the 96-well intermediate plate was copied to a 384-well plate as an analysis plate. The prepared enzyme solution was added to each well of the 384-well plate, then incubated at room temperature for 10 minutes, and then 10 μL of the prepared peptide solution (FAM-labeled peptide and ATP in kinase-based buffer) was added. The sample was incubated at 28° C. for 1 hours, and then 25 μL of buffer was added. The conversion data from the Caliper program was copied and converted to the inhibition rate.
(§2) Inhibition rate (%)=(max−conversion)/(max−min)×100.

[2] = test system: human erythroleukemia cells HEL; assay: anti-tumor cell proliferation activity (CCK-8), HEL; assay type: cell-based; conditions: 72 hours incubation
Description: (§3) The compound of the 2-aminopyrimidine skeleton of the above formula I according to the present invention was tested in vitro to inhibit the activity of human erythroleukemia cells HEL and human myeloid monocytic leukemia cells Molm-13. The control compounds Pacritinib and Fedratinib were prepared by our research group.
(§4) After the cells are resuscitated and passaged 2-3 times to stable state, 10 μL of the cell suspension was pipetted to a cell counting plate for counting, and the cell concentration was adjusted to 10×10^4 cells/mL. No cell solution was added to the outermost wells of the 96-well plate, and 100 μL of cell suspension was added to each of the remaining wells. 100 μL of medium was added to wells B2-B7 as a control group, and other wells were added with different concentrations of the compounds to be tested. After 72 hours of incubation in the incubator, 200 μL, of fresh medium was added to well A1 as a blank group, and then 20 µL of CCK-8 solution was added to each well, and the incubation continued for 4 hours. The 96-well plate was shaken at room temperature for 3 minutes, and then the absorbance at 450 nm wavelength was measured with a microplate reader, and the inhibition rate of cell growth was calculated according to the following formula:
(§5) Inhibition rate (%)=[(A control−A addition)/(A control−A blank)]×100
(§6) IC50 is the drug concentration required to inhibit half of the cell growth. According to the results of drug concentration and inhibition rate, GraphPad Prism version 5 software is used to calculate IC50 through the dose-effect curve.

[3] = test system: human myeloid monocytic leukemia cells Molm-13; assay: anti-tumor cell proliferation activity (CCK-8), Molm-13; assay type: cell-based; conditions: Molm-13 cells, 72 hours incubation
Description: as §3, §4, §5, §6

[4] = biological target: T1, FLT3 (Homo sapiens, UniProt P36888); assay: in vitro FLT3 kinase activity test, Mobility Shift Assay; assay type: biochemical; conditions: compound concentration 0.1 μM; read-out: Percentage of inhibition against FLT3 at 0.1 μM
T1 sequence (P36888 27-993): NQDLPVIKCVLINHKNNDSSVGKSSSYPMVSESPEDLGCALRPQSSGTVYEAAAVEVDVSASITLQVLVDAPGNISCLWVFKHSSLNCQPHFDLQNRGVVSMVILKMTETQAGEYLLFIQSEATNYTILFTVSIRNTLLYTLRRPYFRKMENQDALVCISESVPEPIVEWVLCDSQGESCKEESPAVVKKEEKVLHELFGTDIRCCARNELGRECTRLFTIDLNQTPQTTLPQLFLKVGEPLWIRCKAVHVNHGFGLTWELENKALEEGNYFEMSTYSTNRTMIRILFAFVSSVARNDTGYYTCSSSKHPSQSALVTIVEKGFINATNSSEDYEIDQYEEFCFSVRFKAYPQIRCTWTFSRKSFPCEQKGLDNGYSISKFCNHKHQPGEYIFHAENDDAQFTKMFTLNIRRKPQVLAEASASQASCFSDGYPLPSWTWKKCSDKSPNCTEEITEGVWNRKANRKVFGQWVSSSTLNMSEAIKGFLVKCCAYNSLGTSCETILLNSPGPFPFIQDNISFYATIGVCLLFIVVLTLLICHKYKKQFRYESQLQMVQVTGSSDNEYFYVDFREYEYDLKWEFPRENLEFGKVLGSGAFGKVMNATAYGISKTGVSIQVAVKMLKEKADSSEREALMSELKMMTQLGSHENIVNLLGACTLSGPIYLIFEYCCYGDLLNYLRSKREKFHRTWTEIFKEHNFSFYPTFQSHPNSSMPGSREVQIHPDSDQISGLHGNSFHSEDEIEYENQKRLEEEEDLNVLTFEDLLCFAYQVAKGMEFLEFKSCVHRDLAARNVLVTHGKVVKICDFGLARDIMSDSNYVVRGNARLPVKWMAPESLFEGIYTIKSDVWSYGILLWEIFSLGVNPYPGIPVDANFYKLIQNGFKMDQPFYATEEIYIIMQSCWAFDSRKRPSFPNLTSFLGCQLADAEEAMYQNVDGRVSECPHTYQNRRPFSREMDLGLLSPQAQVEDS
Description: The in vitro JAK2 and FLT3 kinase activity test was performed on the compounds of the 2-aminopyrimidine backbone of the above formula I (concentration 0.1 μM) according to the present invention using Mobility Shift Assay.
as §1, §2

Chain of JAK2 (O60674 whole entry): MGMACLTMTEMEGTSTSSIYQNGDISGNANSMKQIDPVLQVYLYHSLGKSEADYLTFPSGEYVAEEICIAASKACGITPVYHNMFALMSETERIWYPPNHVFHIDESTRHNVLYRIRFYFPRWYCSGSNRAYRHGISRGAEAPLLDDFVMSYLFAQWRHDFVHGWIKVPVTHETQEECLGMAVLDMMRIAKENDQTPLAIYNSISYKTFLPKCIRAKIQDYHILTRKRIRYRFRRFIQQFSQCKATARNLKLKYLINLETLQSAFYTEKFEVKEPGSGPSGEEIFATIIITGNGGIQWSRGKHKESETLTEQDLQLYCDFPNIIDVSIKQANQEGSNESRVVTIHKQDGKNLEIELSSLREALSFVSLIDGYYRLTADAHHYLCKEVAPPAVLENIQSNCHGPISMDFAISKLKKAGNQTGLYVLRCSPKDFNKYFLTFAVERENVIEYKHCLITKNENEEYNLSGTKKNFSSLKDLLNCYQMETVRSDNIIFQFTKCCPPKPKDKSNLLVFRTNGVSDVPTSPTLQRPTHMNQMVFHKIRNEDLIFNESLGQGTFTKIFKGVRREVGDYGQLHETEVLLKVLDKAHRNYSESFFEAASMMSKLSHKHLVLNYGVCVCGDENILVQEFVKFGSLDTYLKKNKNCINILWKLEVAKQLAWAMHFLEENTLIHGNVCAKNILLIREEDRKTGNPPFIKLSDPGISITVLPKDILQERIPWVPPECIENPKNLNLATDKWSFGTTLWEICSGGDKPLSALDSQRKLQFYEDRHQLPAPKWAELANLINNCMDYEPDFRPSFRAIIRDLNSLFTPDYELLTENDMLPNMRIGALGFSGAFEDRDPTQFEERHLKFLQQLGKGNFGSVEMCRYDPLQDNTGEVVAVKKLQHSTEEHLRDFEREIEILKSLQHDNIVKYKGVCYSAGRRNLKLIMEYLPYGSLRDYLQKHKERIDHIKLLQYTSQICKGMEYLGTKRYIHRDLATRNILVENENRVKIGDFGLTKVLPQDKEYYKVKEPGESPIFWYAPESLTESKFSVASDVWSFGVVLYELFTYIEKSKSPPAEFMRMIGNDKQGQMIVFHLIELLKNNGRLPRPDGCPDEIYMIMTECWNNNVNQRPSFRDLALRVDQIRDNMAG

SMILES: CC(=O)c1ccc(NC(=O)C2CCN(c3nc(Nc4ccc(N5CCOCC5)cc4)ncc3C)CC2)cc1 [Example 33, N-(4-acetylphenyl)-1-(5-methyl-2-{[4-(morpholin-4-yl)phenyl]amino}pyrimidin-4-yl)piperidine-4-carboxamide]
inhibition at 0.1 µM [1]: 74.3%
inhibition at 0.1 µM [4]: 97%
IC50 [2]: 1700 nM
IC50 [3]: 62 nM

SMILES: Cc1cnc(Nc2ccc(N3CCOCC3)cc2)nc1N1CCN(C(=O)Nc2ccc(C#N)cc2)CC1 [Example 20, N-(4-cyanophenyl)-4-(5-methyl-2-{[4-(morpholin-4-yl)phenyl]amino}pyrimidin-4-yl)piperazine-1-carboxamide]
inhibition at 0.1 µM [1]: 88.5%
inhibition at 0.1 µM [4]: 95.2%
IC50 [2]: 900 nM
IC50 [3]: 72 nM

SMILES: Cc1cnc(Nc2ccc(OCCN3CCCC3)cc2)nc1Nc1cccc(S(=O)(=O)NC(C)(C)C)c1 [Fedratinib, reference compound]
inhibition at 0.1 µM [1]: 95.2%
inhibition at 0.1 µM [4]: 88.7%
IC50 [2]: 890 nM
IC50 [3]: 68 nM

SMILES: CC(=O)c1ccc(NC(=O)N2CCN(c3nc(Nc4ccc(N5CCOCC5)cc4)ncc3C)CC2)cc1 [Example 22, N-(4-acetylphenyl)-4-(5-methyl-2-{[4-(morpholin-4-yl)phenyl]amino}pyrimidin-4-yl)piperazine-1-carboxamide]
inhibition at 0.1 µM [1]: 81.8%
inhibition at 0.1 µM [4]: 99.1%
IC50 [2]: 800 nM
IC50 [3]: 42 nM

SMILES: CC(=O)c1ccc(NC(=O)N2CCC(Nc3nc(Nc4ccc(N5CCOCC5)cc4)ncc3C)CC2)cc1 [Example 32, N-(4-acetylphenyl)-4-[(5-methyl-2-{[4-(morpholin-4-yl)phenyl]amino}pyrimidin-4-yl)amino]piperidine-1-carboxamide]
inhibition at 0.1 µM [1]: 80.5%
inhibition at 0.1 µM [4]: 78.6%
IC50 [2]: 6700 nM
IC50 [3]: 350 nM

Further molecules by falling IC50 [2], results first:

inhibition at 0.1 µM [1]: 74.6%
inhibition at 0.1 µM [4]: 82.5%
IC50 [2]: 4600 nM
IC50 [3]: 83 nM
SMILES: CC(=O)c1ccc(NC(=O)N2CCN(c3nc(Nc4ccc(N5CCOCC5)cc4)ncc3C(F)(F)F)CC2)cc1 [Example 26, N-(4-acetylphenyl)-4-(5-trifluoromethyl-2-{[4-(morpholin-4-yl)phenyl]amino}pyrimidin-4-yl)piperazine-1-carboxamide]

inhibition at 0.1 µM [1]: 76.7%
inhibition at 0.1 µM [4]: 72.3%
IC50 [2]: 4300 nM
IC50 [3]: 77 nM
SMILES: CC(=O)c1ccc(NC(=O)N2CCN(c3ccnc(Nc4ccc(N5CCOCC5)cc4)n3)CC2)cc1 [Example 6, N-(4-acetylphenyl)-4-(2-{[4-(morpholin-4-yl)phenyl]amino}pyrimidin-4-yl)piperazine-1-carboxamide]

inhibition at 0.1 µM [1]: 92%
IC50 [2]: 1100 nM
IC50 [3]: 23 nM
SMILES: C1=C/COCc2cc(ccc2OCCN2CCCC2)Nc2nccc(n2)-c2cccc(c2)COC/1 [Pacritinib, reference compound]
